Test results from patent US20260217717A1, “CDK2 INHIBITORS” (BLUEPRINT MEDICINES CORPORATION, priority 2023, published 2026).

Assays:
[1] = biological target: T1, CDK1/Cyclin B1 (Homo sapiens, UniProt P06493); assay: CDK1/Cyclin B1 enzymatic phosphorylation assay (Caliper mobility shift); format: biochemical; settings: read-out: Enzyme CDK1/cyclin B1 IC50
T1 construct: GST; purchased BPS 40454
Procedure: (§1) Reactions proceeded until between 10% to 20% total peptides were phosphorylated at room temperature (25° C.) and were terminated with 35 mM 2,2′,2″,2′″-(ethane-1,2-diyldinitrilo)tetraacetic acid (EDTA). Product was detected using the Caliper mobility shift detection method where the phosphorylated peptide (product) and substrate were electrophoretically separated and measured. Percent activity was plotted against log concentration of compound and points to generate an apparent IC50.

[2] = biological target: T2, CDK2/Cyclin E (Homo sapiens, UniProt P24941); assay: CDK2/Cyclin E enzymatic phosphorylation assay (Caliper mobility shift); format: biochemical; settings: read-out: Enzyme CDK2/cyclin E IC50; note: 1.0 mM ATP or ATP Km
T2 construct: purchased Eurofins 14-475
Procedure: as §1

T1 sequence (P06493 whole entry): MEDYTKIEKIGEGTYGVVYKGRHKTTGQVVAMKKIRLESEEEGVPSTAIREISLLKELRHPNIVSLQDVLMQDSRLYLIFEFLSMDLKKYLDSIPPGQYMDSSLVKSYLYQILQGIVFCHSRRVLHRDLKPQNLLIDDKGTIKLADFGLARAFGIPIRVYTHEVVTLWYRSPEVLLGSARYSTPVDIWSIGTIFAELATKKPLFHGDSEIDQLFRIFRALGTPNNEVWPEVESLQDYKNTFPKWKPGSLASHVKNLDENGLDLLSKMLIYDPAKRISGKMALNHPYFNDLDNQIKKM
T1 sequence (P14635 whole entry partner): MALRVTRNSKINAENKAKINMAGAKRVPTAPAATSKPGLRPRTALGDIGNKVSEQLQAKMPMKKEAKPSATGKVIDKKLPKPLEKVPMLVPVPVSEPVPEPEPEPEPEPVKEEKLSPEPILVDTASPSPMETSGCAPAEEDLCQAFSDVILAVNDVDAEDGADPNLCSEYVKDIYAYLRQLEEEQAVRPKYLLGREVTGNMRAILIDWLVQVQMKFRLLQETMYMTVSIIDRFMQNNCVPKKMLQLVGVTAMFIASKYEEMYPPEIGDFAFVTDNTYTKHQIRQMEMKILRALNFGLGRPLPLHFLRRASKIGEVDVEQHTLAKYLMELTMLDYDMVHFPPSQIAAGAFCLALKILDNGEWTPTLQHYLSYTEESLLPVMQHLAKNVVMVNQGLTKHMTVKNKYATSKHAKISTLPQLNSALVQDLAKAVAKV

IC50 [1]	IC50 [2]	Compound
144 nM	0.6 nM	CC(C)c1cc(Nc2cnc3cnn(C[C@H]4CCCOC4)c3n2)n[nH]1 (single isomer, unassigned) [Example 9, (R)-N-(5-isopropyl-1H-pyrazol-3-yl)-1-((tetrahydro-2H-pyran-3-yl)methyl)-1H-pyrazolo[3,4-b] pyrazin-6-amine or (S)-N-(5-isopropyl-1H-pyrazol-3-yl)-1-((tetrahydro-2H-pyran-3-yl)methyl)-1H-pyrazolo[3,4-b]pyrazin-6-amine]
147 nM	0.5 nM	CC(C)c1cc(Nc2cnc3cnn(C[C@@H]4CCCOC4)c3n2)n[nH]1 (single isomer, unassigned) [Example 10, (S)-N-(5-isopropyl-1H-pyrazol-3-yl)-1-((tetrahydro-2H-pyran-3-yl)methyl)-1H-pyrazolo[3,4-b]pyrazin-6-amine or (R)-N-(5-isopropyl-1H-pyrazol-3-yl)-1-((tetrahydro-2H-pyran-3-yl)methyl)-1H-pyrazolo[3,4-b]pyrazin-6-amine]
1270 nM	3.8 nM	CC(C)c1cc(Nc2cnc3cnn(C[C@H]4CCOC4)c3n2)n[nH]1 (single isomer, unassigned) [Example 11, (R)-N-(5-isopropyl-1H-pyrazol-3-yl)-1-((tetrahydrofuran-3-yl)methyl)-1H-pyrazolo[3,4-b]pyrazin-6-amine or (S)-N-(5-isopropyl-1H-pyrazol-3-yl)-1-((tetrahydrofuran-3-yl)methyl)-1H-pyrazolo[3,4-b]pyrazin-6-amine]
119 nM	0.5 nM	CC(C)c1cc(Nc2cnc3cnn(C[C@@H]4CCOC4)c3n2)n[nH]1 (single isomer, unassigned) [Example 12, (S)-N-(5-isopropyl-1H-pyrazol-3-yl)-1-((tetrahydrofuran-3-yl)methyl)-1H-pyrazolo[3,4-b]pyrazin-6-amine or (R)-N-(5-isopropyl-1H-pyrazol-3-yl)-1-((tetrahydrofuran-3-yl)methyl)-1H-pyrazolo[3,4-b]pyrazin-6-amine]
907 nM	2.3 nM	CC[C@@H]([C@H](C)O)n1ncc2ncc(Nc3cc(C(C)C)[nH]n3)nc21 (single isomer, unassigned) [Example 13, (2S,3S)-3-(6-((5-isopropyl-1H-pyrazol-3-yl)amino)-1H-pyrazolo[3,4-b]pyrazin-1-yl)pentan-2-ol or (2S,3R)-3-(6-((5-isopropyl-1H-pyrazol-3-yl)amino)-1H-pyrazolo[3,4-b]pyrazin-1-yl)pentan-2-ol]
3130 nM	23.9 nM	CC[C@H]([C@H](C)O)n1ncc2ncc(Nc3cc(C(C)C)[nH]n3)nc21 (single isomer, unassigned) [Example 14, (2S,3R)-3-(6-((5-isopropyl-1H-pyrazol-3-yl)amino)-1H-pyrazolo[3,4-b]pyrazin-1-yl)pentan-2-ol or (2S,3S)-3-(6-((5-isopropyl-1H-pyrazol-3-yl)amino)-1H-pyrazolo[3,4-b]pyrazin-1-yl)pentan-2-ol]
1380 nM	4.5 nM	Cc1cc(Nc2cnc3cnn([C@@H](C)c4cc(F)ccn4)c3n2)n[nH]1 (single isomer, unassigned) [Example 19, (S)-1-(1-(4-fluoropyridin-2-yl)ethyl)-N-(5-methyl-1H-pyrazol-3-yl)-1H-pyrazolo[3,4-b]pyrazin-6-amine or (R)-1-(1-(4-fluoropyridin-2-yl)ethyl)-N-(5-methyl-1H-pyrazol-3-yl)-1H-pyrazolo[3,4-b]pyrazin-6-amine]
1010 nM	7.4 nM	C[C@H](c1cc(Nc2cnc3cnn(CC4CCOCC4)c3n2)n[nH]1)C(F)F (single isomer, unassigned) [Example 20]
595 nM	5.4 nM	C[C@@H](c1cc(Nc2cnc3cnn(CC4CCOCC4)c3n2)n[nH]1)C(F)F (single isomer, unassigned) [Example 21]
2990 nM	21.5 nM	CC(C)c1cc(Nc2cnc3cnn(CCCO)c3n2)n[nH]1 [Example 1, 3-(6-((5-isopropyl-1H-pyrazol-3-yl)amino)-1H-pyrazolo[3,4-b]pyrazin-1-yl)propan-1-ol]
6030 nM	22.8 nM	C[C@@H](c1cccnc1)n1ncc2ncc(Nc3cc(C(F)F)[nH]n3)nc21 [Example 2, (S)-N-(5-(difluoromethyl)-1H-pyrazol-3-yl)-1-(1-(pyridin-3-yl)ethyl)-1H-pyrazolo[3,4-b]pyrazin-6-amine]
9140 nM	78.1 nM	Cc1cc(Nc2cnc3cnn(Cc4cccnc4)c3n2)n[nH]1 [Example 3, N-(5-methyl-1H-pyrazol-3-yl)-1-(pyridin-3-ylmethyl)-1H-pyrazolo[3,4-b]pyrazin-6-amine]
5000 nM	36.3 nM	Cc1nn(Cc2cccnc2)c2nc(Nc3cc(C4COC4)[nH]n3)cnc12 [Example 4, 3-methyl-N-(5-(oxetan-3-yl)-1H-pyrazol-3-yl)-1-(pyridin-3-ylmethyl)-1H-pyrazolo[3,4-b]pyrazin-6-amine]
5230 nM	57.6 nM	Cc1cc(Nc2cnc3cnn(C[C@H]4CCCOC4)c3n2)n[nH]1 [Example 5, (R)-N-(5-methyl-1H-pyrazol-3-yl)-1-((tetrahydro-2H-pyran-3-yl)methyl)-1H-pyrazolo[3,4-b]pyrazin-6-amine]
388 nM	3.7 nM	Cc1nn(CC2CCOCC2)c2nc(Nc3cc(C(C)C)[nH]n3)cnc12 [Example 6, N-(5-isopropyl-1H-pyrazol-3-yl)-3-methyl-1-((tetrahydro-2H-pyran-4-yl)methyl)-1H-pyrazolo[3,4-b]pyrazin-6-amine]
234 nM	1.3 nM	Cc1nn(Cc2cccnc2)c2nc(Nc3cc(C(C)C)[nH]n3)cnc12 [Example 7, N-(5-isopropyl-1H-pyrazol-3-yl)-3-methyl-1-(pyridin-3-ylmethyl)-1H-pyrazolo[3,4-b]pyrazin-6-amine]
2580 nM	37.1 nM	Cc1nn(CC2CCOCC2)c2nc(Nc3cc(C4COC4)[nH]n3)cnc12 [Example 8, 3-methyl-N-(5-(oxetan-3-yl)-1H-pyrazol-3-yl)-1-((tetrahydro-2H-pyran-4-yl)methyl)-1H-pyrazolo[3,4-b]pyrazin-6-amine]
5660 nM	29.2 nM	Cc1cc(Nc2cnc3cnn([C@@H](C)c4cccnc4)c3n2)n[nH]1 [Example 15, (S)-N-(5-methyl-1H-pyrazol-3-yl)-1-(1-(pyridin-3-yl)ethyl)-1H-pyrazolo[3,4-b]pyrazin-6-amine]
1020 nM	8.5 nM	c1nc2cnn(C[C@H]3[C@@H]4COC[C@@H]43)c2nc1Nc1cc(C2COC2)[nH]n1 [Example 16, 1-(((1R,5S,6s)-3-oxabicyclo[3.1.0]hexan-6-yl)methyl)-N-(5-(oxetan-3-yl)-1H-pyrazol-3-yl)-1H-pyrazolo[3,4-b]pyrazin-6-amine]
1650 nM	14.8 nM	Cc1nc2cnn(CC3CCOCC3)c2nc1Nc1cc(C(C)C)[nH]n1 [Example 17, N-(5-isopropyl-1H-pyrazol-3-yl)-5-methyl-1-((tetrahydro-2H-pyran-4-yl)methyl)-1H-pyrazolo[3,4-b]pyrazin-6-amine]
3230 nM	15.1 nM	Cc1nc2cnn(Cc3cccnc3)c2nc1Nc1cc(C(C)C)[nH]n1 [Example 18, N-(5-isopropyl-1H-pyrazol-3-yl)-5-methyl-1-(pyridin-3-ylmethyl)-1H-pyrazolo[3,4-b]pyrazin-6-amine]
3460 nM	8.8 nM	C[C@@H](c1cccnc1F)n1ncc2ncc(Nc3cc(C#N)[nH]n3)nc21 [Example 22, (S)-3-((1-(1-(2-fluoropyridin-3-yl)ethyl)-1H-pyrazolo[3,4-b]pyrazin-6-yl)amino)-1H-pyrazole-5-carbonitrile]
1540 nM	14.1 nM	COc1ncccc1[C@H](C)n1ncc2ncc(Nc3cc(C)[nH]n3)nc21 [Example 23, (S)-1-(1-(2-methoxypyridin-3-yl)ethyl)-N-(5-methyl-1H-pyrazol-3-yl)-1H-pyrazolo[3,4-b]pyrazin-6-amine]
3330 nM	20.3 nM	C[C@@H](c1cccnc1Cl)n1ncc2ncc(Nc3cc(C#N)[nH]n3)nc21 [Example 24, (S)-3-((1-(1-(2-chloropyridin-3-yl)ethyl)-1H-pyrazolo[3,4-b]pyrazin-6-yl)amino)-1H-pyrazole-5-carbonitrile]
10000 nM	76.1 nM	C[C@@H](c1ccccn1)n1ncc2ncc(Nc3cc(C#N)[nH]n3)nc21 [Example 25, (S)-3-((1-(1-(pyridin-2-yl)ethyl)-1H-pyrazolo[3,4-b]pyrazin-6-yl)amino)-1H-pyrazole-5-carbonitrile]
1060 nM	4.2 nM	Cc1cc(Nc2cnc3cnn([C@@H](C)c4cccnc4Cl)c3n2)n[nH]1 [Example 26, (S)-1-(1-(2-chloropyridin-3-yl)ethyl)-N-(5-methyl-1H-pyrazol-3-yl)-1H-pyrazolo[3,4-b]pyrazin-6-amine]
10000 nM	96.1 nM	Cc1cc(Nc2cnc3c(Cl)nn([C@@H](C)c4cccnc4)c3n2)n[nH]1 [Example 27, (S)-3-chloro-N-(5-methyl-1H-pyrazol-3-yl)-1-(1-(pyridin-3-yl)ethyl)-1H-pyrazolo[3,4-b]pyrazin-6-amine]
2700 nM	5.6 nM	Cc1cc(Nc2cnc3c(Cl)nn([C@@H](C)c4cccnc4F)c3n2)n[nH]1 [Example 28, (S)-3-chloro-1-(1-(2-fluoropyridin-3-yl)ethyl)-N-(5-methyl-1H-pyrazol-3-yl)-1H-pyrazolo[3,4-b]pyrazin-6-amine]
159 nM	0.2 nM	CC(C)c1cc(Nc2cnc3cnn([C@@H](C)c4cccnc4)c3n2)n[nH]1 [Example 29, (S)-N-(5-isopropyl-1H-pyrazol-3-yl)-1-(1-(pyridin-3-yl)ethyl)-1H-pyrazolo[3,4-b]pyrazin-6-amine]
